This passage reports IC50 results from patent US20110053933A1, “HYDROXYQUINOXALINECARBOXAMIDE DERIVATIVE” (DAIICHI SANKYO COMPANY, LIMITED, priority 2008, published 2011).

The structures appear in SMILES notation. A value given as a limit tells only on which side of the number the result lay.

The test system of this assay is γ-glutamyl carboxylation reaction (human Gas6 in Gas6-HEK293 cells). As to the kind of experiment: Inhibitory action on γ-glutamyl carboxylation reaction (secreted γ-glutamyl carboxylated Gas6 by ELISA). Type of assay: cell-based. The note with it: vitamin K2 100 nM, exposure 18 to 20 hours, ELISA absorbance at 620 nm, read-out: IC50 (50% inhibitory concentration for the γ-glutamyl carboxylation reaction). On the procedure: Measurement of Inhibitory Action on γ-Glutamyl Carboxylation Reaction
Cells were used that expressed Gas6 excreted outside the cells when subjected to γ-glutamyl carboxylation, and inhibitory action on γ-glutamyl carboxylation reaction was assessed by measuring the secreted amount of extracellular Gas6 by ELISA method.
(A) Preparation for Assay Plate Containing Solid-Phase Anti-Human Gas6 Antibody
Goat anti-human Gas6 antibody (R&D Systems, Inc.) was diluted to 1 μg/ml with Dulbecco's phosphate-buffered saline, and 40 μl aliquots thereof were dispensed into each well of a 384-well microplate. After immobilizing the antibody to the solid phase by allowing it to stand at 4° C. overnight or at room temperature for 2 hours or more, each well was washed three times with wash buffer (10 mM Tris-HCl pH 7.4, 150 mM sodium chloride, 0.05% Tween20). After removing the supernatant, 80 μl aliquots of a 1% aqueous solution of Block Ace (Dainippon Sumitomo Pharma) were dispensed into each well and allowed to react at room temperature for 1 hour or more.
(B) Exposure of Test Compounds to Cells Stably Expressing Human Gas6
Cells that stably express human Gas6 (Gas6-HEK293), which were prepared by inserting human Gas6 gene (inserted between SalI and NotI within multiple cloning sites of pCIneo expression vector) into HEK293 cells, were grown and sub-cultured using Dulbecco's modified Eagle's medium (DMEM) containing 10% fetal calf serum (FCS). On the day before ELISA measurement, the Gas6-HEK293 cells were detached with trypsin-EDTA, dispersed in DMEM containing 10% FCS, and disseminated into each well of a 384-well, collagen type I-coated plate (Becton-Dickinson) in 30 μl aliquots containing 1.0×10^4 cells each, followed by culturing for 3 to 4 hours at 5% CO2 and 37° C. 30 μl aliquots of DMEM containing test compound solutions, prepared at various concentrations by dissolving in DMSO, and vitamin K2 at 0.1% and 100 nM, respectively (indicating final concentrations in both cases) were added to each well followed by additionally culturing for 18 to 20 hours.
(C) Quantification of γ-Glutamyl Carboxylated Gas6 by ELISA and Calculation of 50% Inhibitory Concentrations of γ-Glutamyl Carboxylation Reaction
After removing the 1% Block Ace aqueous solution from the preliminarily prepared assay plates containing solid phase anti-human Gas6 antibody, the culture supernatant of Gas6-HEK293 cells exposed to the test compounds was collected and 40 μl aliquots were dispensed into each well followed by allowing to react at room temperature for 2 hours (Step 1). The culture supernatant was removed and each well was washed three times with wash buffer. Thereafter, the same washing procedure was carried out between Steps 2 and 3 and Steps 3 and 4. Subsequently, 40 μl aliquots of mouse anti-human […] antibody (American Diagnostica inc.), adjusted to 0.5 μg/ml with immunoreaction buffer (100 mM Tris-HCl pH 7.4, 0.05% Tween20, 0.1% Block Ace), were dispensed into each well and allowed to react at room temperature for 1 hour (Step 2). Next, 40 μl aliquots of alkaline phosphatase-conjugated anti-mouse IgG antibody adjusted to 1.0 μg/ml with immunoreaction buffer were dispensed into each well and allowed to react at room temperature for 1 hour (Step 3). 40 μl aliquots of BluePhos Microwell (KPL) were dispensed into each well, and after incubating at room temperature for 10 minutes (Step 4), 20 μl aliquots of 5% EDTA were added to each well to stop the color development reaction, followed by measurement of absorbance at 620 nm (Step 5). […]
For orientation: In an ELISA, binding on a coated surface is turned into a signal by an enzyme label.
As to `CC(C)[C@H](NC(=O)c1nc2ccccc2nc1O)C(=O)N1CCC(C(=O)c2ccc(F)cc2F)CC1` [Example 98, N-[(1S)-1-{[4-(2,4-Difluorobenzoyl)piperidin-1-yl]carbonyl}-2-methylpropyl]-3-hydroxyquinoxaline-2-carboxamide], the IC50 is 3.5 nM.

Consider `CC(C)[C@H](NC(=O)c1nc2ccccc2nc1O)C(=O)N1CCC(Oc2ncc(Br)cn2)CC1` [Example 65, N-[(1S)-1-({4-[(5-Bromopyrimidin-2-yl)oxy]piperidin-1-yl}carbonyl)-2-methylpropyl]-3-hydroxyquinoxaline-2-carboxamide], for which the IC50 turned out to be 20 nM. With `CC(C)[C@H](NC(=O)c1nc2ccccc2nc1O)C(=O)N1CCC(Oc2ccc(C(F)(F)F)cc2)CC1` [Example 62, 3-Hydroxy-N-[(1S)-2-methyl-1-({4-[4-(trifluoromethyl)phenoxy]piperidin-1-yl}carbonyl)propyl]quinoxaline-2-carboxamide], the IC50 was found to be 3.6 nM. On to `CC(C)[C@H](NC(=O)c1nc2ccccc2nc1O)C(=O)N1CCC(N(C)c2ccc(F)cn2)CC1` [Example 35, N-[(1S)-1-({4-[(5-Fluoropyridin-2-yl)(methyl)amino]piperidin-1-yl}carbonyl)-2-methylpropyl]-3-hydroxyquinoxaline-2-carboxamide], for which the IC50 is under 0.6 nM. As for `CC(C)[C@H](NC(=O)c1nc2ccccc2nc1O)C(=O)N1CCC(Oc2ncc(F)cc2F)CC1` [Example 49, N-[(1S)-1-({4-[(3,5-Difluoropyridin-2-yl)oxy]piperidin-1-yl]carbonyl)-2-methylpropyl}-3-hydroxyquinoxaline-2-carboxamide], the IC50 came out at 4.3 nM. `CC[C@H](NC(=O)c1nc2ccccc2nc1O)C(=O)N1CCC(Oc2ccc(OC(F)(F)F)cc2)CC1` [Example 10, 3-Hydroxy-N-[(1S)-1-({4-[4-(trifluoromethoxy)phenoxy]piperidin-1-yl}carbonyl)propyl]quinoxaline-2-carboxamide]: the IC50 was under 0.6 nM.

Turning to `CC(C)[C@H](NC(=O)c1nc2ccc(F)cc2nc1O)C(=O)N1CCC(Oc2ccc(F)cc2)CC1` [Example 74, N-[(1S)-1-{[4-(4-Fluorophenoxy)piperidin-1-yl]carbonyl}-2-methylpropyl]-6-fluoro-3-hydroxyquinoxaline-2-carboxamide], the IC50 amounted to 5.5 nM. Consider `CC(C)[C@H](NC(=O)c1nc2ccccc2nc1O)C(=O)N1CCC(Oc2ccc(F)cc2)CC1` [Example 16, N-[(1S)-1-{[4-(4-Fluorophenoxy)piperidin-1-yl]carbonyl}-2-methylpropyl]-3-hydroxyquinoxaline-2-carboxamide], for which the IC50 turned out to be 7 nM.

In the case of `CC(C)[C@H](NC(=O)c1nc2ccccc2nc1O)C(=O)N1CCC(Oc2ncc(N3CCCCC3)cn2)CC1` [Example 96, 3-Hydroxy-N-[(1S)-2-methyl-1-({4-[(5-piperidin-1-ylpyrimidin-2-yl)oxy]piperidin-1-yl}carbonyl)propyl]quinoxaline-2-carboxamide], the IC50 worked out at 9.6 nM.

As to `COc1ccc(OC2CCN(C(=O)[C@@H](NC(=O)c3nc4ccccc4nc3O)C(C)C)CC2)cn1` [Example 86, 3-Hydroxy-N-[(1S)-1-({4-[(6-methoxypyridin-3-yl)oxy]piperidin-1-yl}carbonyl)-2-methylpropyl]quinoxaline-2-carboxamide], the IC50 came to 0.7 nM. For the molecule `CC(C)[C@H](NC(=O)c1nc2ccccc2nc1O)C(=O)N1CCC(Oc2ccc(F)cc2F)CC1` [Example 23, N-[(1S)-1-{[4-(2,4-Difluorophenoxy)piperidin-1-yl]carbonyl}-2-methylpropyl]-3-hydroxyquinoxaline-2-carboxamide], the IC50 is under 0.6 nM. The figure for `CC(C)[C@H](NC(=O)c1nc2ccccc2nc1O)C(=O)N1CCC(Oc2ccc(Cl)cn2)CC1` [Example 29, N-[(1S)-1-({4-[(5-Chloropyridin-2-yl)oxy]piperidin-1-yl}carbonyl)-2-methylpropyl]-3-hydroxyquinoxaline-2-carboxamide] is 7.2 nM; for `CC[C@H](NC(=O)c1nc2ccccc2nc1O)C(=O)N1CCC(Oc2ccc(C#N)cc2)CC1` [Example 11, N-[(1S)-1-{[4-(4-Cyanophenoxy)piperidin-1-yl]carbonyl}propyl]-3-hydroxyquinoxaline-2-carboxamide] it is 6.5 nM. The figure for `CC[C@H](NC(=O)c1nc2ccccc2nc1O)C(=O)N1CCC(Oc2ccc(F)cn2)CC1` [Example 12, N-[(1S)-1-({4-[(5-Fluoropyridin-2-yl)oxy]piperidin-1-yl}carbonyl)propyl]-3-hydroxyquinoxaline-2-carboxamide] is 4.2 nM; for `CC(C)(O)[C@H](NC(=O)c1nc2ccccc2nc1O)C(=O)N1CCC(Oc2ccc(F)cc2)CC1` [Example 69, N-[(1S)-1-{[4-(4-Fluorophenoxy)piperidin-1-yl]carbonyl}-2-hydroxy-2-methylpropyl]-3-hydroxyquinoxaline-2-carboxamide] it is 3.4 nM. On to `CC(C)[C@H](NC(=O)c1nc2ccccc2nc1O)C(=O)N1CCC(Oc2ccc(C#N)cc2)CC1` [Example 19, N-[(1S)-1-{[4-(4-Cyanophenoxy)piperidin-1-yl]carbonyl}-2-methylpropyl]-3-hydroxyquinoxaline-2-carboxamide], for which the IC50 was found to be 4.7 nM. Take `C[C@H](NC(=O)c1nc2ccccc2nc1O)C(=O)N1CCC(Oc2ccc(Cl)cc2)CC1` [Example 1, N-{(1S)-2-[4-(4-Chlorophenoxy)piperidin-1-yl]-1-methyl-2-oxoethyl}-3-hydroxyquinoxaline-2-carboxamide]: the IC50 amounted to 8.4 nM. Next, `CC(C)[C@H](NC(=O)c1nc2ccccc2nc1O)C(=O)N1CCC(C(=O)c2ccc(F)cc2O)CC1` [Example 67, N-[(1S)-1-{[4-(4-Fluoro-2-hydroxybenzoyl)piperidin-1-yl]carbonyl}-2-methylpropyl]-3-hydroxyquinoxaline-2-carboxamide]: 0.75 nM. `CC(C)[C@H](NC(=O)c1nc2ccccc2nc1O)C(=O)N1CCC(Oc2ccc(F)cc2Br)CC1` [Example 21, N-[(1S)-1-{[4-(2-Bromo-4-fluorophenoxy)piperidin-1-yl]carbonyl}-2-methylpropyl]-3-hydroxyquinoxaline-2-carboxamide]: the IC50 came to 0.89 nM.

In the case of `CC(C)[C@H](NC(=O)c1nc2ccccc2nc1O)C(=O)N1CCC(Oc2ncc(Br)cn2)C(C)(C)C1` (stereo partly drawn) [Example 82, N-[(1S)-1-({4-[(5-Bromopyrimidin-2-yl)oxy]-3,3-dimethylpiperidin-1-yl}carbonyl)-2-methylpropyl]-3-hydroxyquinoxaline-2-carboxamide], the IC50 came to 4.6 nM. With `C[C@H](NC(=O)c1nc2ccccc2nc1O)C(=O)N1CCC(Oc2ccc(OC(F)(F)F)cc2)CC1` [Example 4, 3-Hydroxy-N-[(1S)-1-methyl-2-oxo-2-{4-[4-(trifluoromethoxy)phenoxy]piperidin-1-yl}ethyl]quinoxaline-2-carboxamide], the IC50 is 4.7 nM. `CC(C)[C@H](NC(=O)c1nc2ccccc2nc1O)C(=O)N1CCC(Oc2ccc(C(F)(F)F)nc2)CC1` [Example 84, 3-Hydroxy-N-{(1S)-2-methyl-1-[(4-{[6-(trifluoromethyl)pyridin-3-yl]oxy}piperidin-1-yl)carbonyl]propyl}quinoxaline-2-carboxamide]: the IC50 was found to be 5.5 nM.

Regarding `C[C@H](NC(=O)c1nc2ccccc2nc1O)C(=O)N1CCC(Oc2ccc(F)cc2F)CC1` [Example 3, N-{(1S)-2-[4-(2,4-Difluorophenoxy)piperidin-1-yl]-1-methyl-2-oxoethyl}-3-hydroxyquinoxaline-2-carboxamide], the IC50 came to 3.5 nM. Regarding `CC(C)[C@H](NC(=O)c1nc2ccccc2nc1O)C(=O)N1CCC(Oc2ncc(C(F)(F)F)cn2)CC1` [Example 94, 3-Hydroxy-N-{(1S)-2-methyl-1-[(4-{[5-(trifluoromethyl)pyrimidin-2-yl]oxy}piperidin-1-yl)carbonyl]propyl}quinoxaline-2-carboxamide], the IC50 worked out at 2.7 nM.
